Series [1] has as its system Human immunodeficiency virus 1. In words: Antiviral activity against HIV-1 3B infected in human MT4 cells incubated for 5 days by MTT assay. In kind it is functional, organism-based. The settings on record: Human immunodeficiency virus 1, 3B, MT4, 120 h. On the technique in general: Formazan colour is commonly taken as a measure of viable cells.
Series [2] can be described thus: Cytotoxicity against human MT4 cells. Format: cell-based.
Series [3] can be described thus: Selectivity ratio of CC50 for human MT4 cells to IC50 for HIV-1 3B. In kind it is toxicity. The settings on record: read-out: Ratio CC50/IC50.
The nature of series [4]: Substrate activity at UDP-glucuronosyltransferase in cynomolgus monkey microsomes assessed as Vmax. In kind it is ADME, Macaca fascicularis.
Series [5] can be described thus: Plasma clearance in iv dosed cynomolgus monkey. In kind it is ADME, organism-based, Macaca fascicularis.
Series [6] in a line: Half life in cynomolgus monkey. In kind it is ADME, Macaca fascicularis. The conditions noted are these: in vivo.
Series [7] has as its system Human immunodeficiency virus 1. In words: Antiviral activity against HIV1 3B infected in human MT2 cells. Format: functional, organism-based. The settings on record: Human immunodeficiency virus 1, 3B.
Series [8] in a line: Cytotoxicity against human MT2 cells. In kind it is cell-based.
The target in series [9] is T1, Dihydropyrimidine dehydrogenase [NADP(+)] (Bos taurus) (UniProt Q28007).
T1 sequence (whole entry): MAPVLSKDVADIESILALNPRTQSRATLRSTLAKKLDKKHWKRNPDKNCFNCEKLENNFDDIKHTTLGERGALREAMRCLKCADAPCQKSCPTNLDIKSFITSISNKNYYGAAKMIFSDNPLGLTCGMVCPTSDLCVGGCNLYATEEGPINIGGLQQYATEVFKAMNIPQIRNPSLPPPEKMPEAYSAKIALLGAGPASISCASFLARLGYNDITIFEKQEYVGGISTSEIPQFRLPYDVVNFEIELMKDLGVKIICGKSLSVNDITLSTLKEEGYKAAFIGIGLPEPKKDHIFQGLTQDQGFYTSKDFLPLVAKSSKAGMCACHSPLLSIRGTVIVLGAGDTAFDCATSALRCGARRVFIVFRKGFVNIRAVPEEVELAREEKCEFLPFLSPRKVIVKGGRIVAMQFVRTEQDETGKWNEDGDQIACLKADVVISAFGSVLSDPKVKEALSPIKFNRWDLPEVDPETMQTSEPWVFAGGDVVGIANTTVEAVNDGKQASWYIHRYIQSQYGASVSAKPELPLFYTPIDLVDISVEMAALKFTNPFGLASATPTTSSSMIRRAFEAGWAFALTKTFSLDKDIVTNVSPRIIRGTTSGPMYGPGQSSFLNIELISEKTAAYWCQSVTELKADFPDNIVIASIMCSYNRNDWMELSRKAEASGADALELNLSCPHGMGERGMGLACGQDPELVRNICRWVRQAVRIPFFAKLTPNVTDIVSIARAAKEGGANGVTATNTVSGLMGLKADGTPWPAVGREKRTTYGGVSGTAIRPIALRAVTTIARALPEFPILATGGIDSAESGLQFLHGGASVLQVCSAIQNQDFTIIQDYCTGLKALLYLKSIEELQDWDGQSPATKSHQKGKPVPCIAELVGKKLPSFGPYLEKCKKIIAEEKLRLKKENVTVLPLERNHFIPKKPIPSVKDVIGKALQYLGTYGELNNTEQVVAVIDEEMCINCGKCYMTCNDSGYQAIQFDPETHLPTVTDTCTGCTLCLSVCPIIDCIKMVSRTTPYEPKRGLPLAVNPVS
As to the kind of experiment: Inactivation of bovine liver DHPDHase assessed as Kinact in presence of NADPH.

Series [10] addresses T2, Thymidine kinase, cytosolic (Homo sapiens, UniProt P04183).
T2 sequence (P04183 whole entry): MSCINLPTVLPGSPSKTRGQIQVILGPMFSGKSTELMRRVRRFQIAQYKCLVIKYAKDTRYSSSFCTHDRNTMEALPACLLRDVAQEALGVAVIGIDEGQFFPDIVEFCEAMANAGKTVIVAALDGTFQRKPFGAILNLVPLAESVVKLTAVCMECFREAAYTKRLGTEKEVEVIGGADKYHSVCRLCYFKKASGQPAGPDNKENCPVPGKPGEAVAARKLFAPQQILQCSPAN
As to the kind of experiment: (§1) Substrate activity at human thymidine kinase 1 assessed as Km incubated for 24 hrs. In kind it is ADME.

The subject of another series is Human rhinovirus sp. In words: Antiviral activity against Human rhinovirus. In kind it is functional, organism-based.
Series [11] is described as follows: Half life in human plasma at 25 uM after 1 to 3 hrs by reversed-phase HPLC. In kind it is ADME, cell-free.
A short description of series [12]: Thermodynamic aqueous solubility of compound in pH 7 buffer at 1 to 2 mg after 4 hrs by HPLC analysis. In kind it is physicochemical. The settings on record: read-out: Therm_solubility.
A short description of series [13]: Stability in human liver microsomes assessed as compound metabolized at 25 uM after 30 mins in presence of NADPH by HPLC analysis. In kind it is ADME, Microsome. The conditions noted are these: read-out: Drug metabolism.
The target of series [14] is T3, Amine oxidase [flavin-containing] A (Homo sapiens, UniProt P21397).
T3 sequence (P21397 whole entry): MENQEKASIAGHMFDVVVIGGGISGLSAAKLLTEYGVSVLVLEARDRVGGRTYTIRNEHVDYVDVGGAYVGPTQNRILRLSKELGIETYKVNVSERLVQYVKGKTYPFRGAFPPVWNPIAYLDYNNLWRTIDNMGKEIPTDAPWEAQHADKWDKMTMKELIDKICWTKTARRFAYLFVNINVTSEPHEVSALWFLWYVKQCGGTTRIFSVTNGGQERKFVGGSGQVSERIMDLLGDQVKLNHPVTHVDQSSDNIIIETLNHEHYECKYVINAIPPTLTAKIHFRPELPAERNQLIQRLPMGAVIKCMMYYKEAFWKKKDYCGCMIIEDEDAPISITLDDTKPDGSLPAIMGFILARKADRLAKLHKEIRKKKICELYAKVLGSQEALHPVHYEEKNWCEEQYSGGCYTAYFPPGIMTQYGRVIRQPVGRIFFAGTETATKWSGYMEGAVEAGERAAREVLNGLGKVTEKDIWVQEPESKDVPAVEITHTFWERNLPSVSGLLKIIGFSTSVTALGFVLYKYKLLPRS
In words: Inhibition of human MAO-A.

Another series relates to Poliovirus 1. In words: Antiviral activity against Poliovirus type 1 Mahoney infected in African green monkey BSC1 cells by crystal violet staining based plaque reduction assay. The conditions noted are these: Enterovirus C, BSC-1. In kind it is functional, organism-based. For orientation: In a plaque reduction assay, fewer plaques than in the control indicate reduced infectivity or spread.

A short description of series [15]: Cmax in rhesus monkey at 8 mg/kg, po. Format: ADME, organism-based, Macaca mulatta. The arrangement: dose 8 mg/kg, route oral. The settings on record: in vivo.
For the next series, the system named is rhinovirus B14. As to the kind of experiment: Antiviral activity against Human rhinovirus 14 infected in HeLa […] cells after 2 days by XTT/PMS assay. The conditions noted are these: Rhinovirus B, 48 h. Format: functional, organism-based.
Series [16] deals with T3, Amine oxidase [flavin-containing] A. As to the kind of experiment: Inhibition of human MAO-A using Tyramine hydrochloride as substrate preincubated for 30 mins followed by substrate addition and measured for 1 hr by fluorometric method.
A short description of series [17]: Inactivation of CYP2B1 (unknown origin). The arrangement: species or system Homo sapiens.
The species entered for the next series is Homo sapiens. In words: Inactivation of CYP2B1 (unknown origin) assessed as Kinact.
The next series has as its target Acetylcholinesterase (Homo sapiens, UniProt P22303). In words: Inhibition of acetylcholinesterase (unknown origin).
The target in the next series is Cholinesterase (Homo sapiens, UniProt P06276). As to the kind of experiment: Inhibition of butyrylcholinesterase (unknown origin).
Substrate in series [18]: C#C[C@@]1(CO)C=C[C@H](n2cc(C)c(=O)[nH]c2=O)O1
The description is as §1. In kind it is ADME.

≈ marks a conversion by molar mass, not a printed value.

Results on 24 molecules are retold here after ChEMBL document CHEMBL4616619, “Acetylene Group, Friend or Foe in Medicinal Chemistry” (J Med Chem, 2020).

Cholinesterase, sequence (P06276 whole entry): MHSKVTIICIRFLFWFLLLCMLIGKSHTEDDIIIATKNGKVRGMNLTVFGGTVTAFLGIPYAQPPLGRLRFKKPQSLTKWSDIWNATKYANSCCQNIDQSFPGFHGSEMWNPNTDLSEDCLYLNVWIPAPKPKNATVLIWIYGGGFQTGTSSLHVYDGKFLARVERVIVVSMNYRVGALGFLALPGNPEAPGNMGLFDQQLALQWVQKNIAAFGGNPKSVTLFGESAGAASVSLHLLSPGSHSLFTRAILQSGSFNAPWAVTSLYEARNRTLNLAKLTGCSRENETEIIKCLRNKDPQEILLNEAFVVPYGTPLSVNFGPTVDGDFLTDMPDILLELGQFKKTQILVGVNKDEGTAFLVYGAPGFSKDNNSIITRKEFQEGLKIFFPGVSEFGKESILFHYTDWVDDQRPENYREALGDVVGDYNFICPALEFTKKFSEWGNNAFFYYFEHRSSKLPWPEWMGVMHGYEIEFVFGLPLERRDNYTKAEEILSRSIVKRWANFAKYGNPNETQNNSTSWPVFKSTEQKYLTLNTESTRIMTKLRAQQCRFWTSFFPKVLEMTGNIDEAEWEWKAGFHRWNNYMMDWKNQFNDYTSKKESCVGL
Acetylcholinesterase, sequence (P22303 whole entry): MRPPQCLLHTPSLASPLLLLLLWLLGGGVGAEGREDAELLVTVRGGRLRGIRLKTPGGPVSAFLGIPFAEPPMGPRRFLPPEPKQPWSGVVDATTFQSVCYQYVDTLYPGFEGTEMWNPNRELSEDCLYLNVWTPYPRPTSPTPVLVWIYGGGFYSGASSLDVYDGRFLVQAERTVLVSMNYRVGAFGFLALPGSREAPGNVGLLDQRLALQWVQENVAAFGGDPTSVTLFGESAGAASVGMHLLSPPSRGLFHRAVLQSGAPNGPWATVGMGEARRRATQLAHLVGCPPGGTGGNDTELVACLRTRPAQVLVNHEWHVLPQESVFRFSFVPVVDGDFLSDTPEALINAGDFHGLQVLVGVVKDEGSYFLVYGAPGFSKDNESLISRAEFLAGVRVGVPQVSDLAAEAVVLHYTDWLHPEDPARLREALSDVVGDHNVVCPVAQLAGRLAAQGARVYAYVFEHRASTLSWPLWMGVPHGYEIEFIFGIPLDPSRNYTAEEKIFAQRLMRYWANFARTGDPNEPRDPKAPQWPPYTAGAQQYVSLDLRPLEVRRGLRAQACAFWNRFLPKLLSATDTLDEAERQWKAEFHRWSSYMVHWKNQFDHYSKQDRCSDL

In the case of `C#C[C@]1(CO)O[C@@H](n2cnc3c(N)nc(F)nc32)C[C@@H]1O`, half-maximal inhibition in series [1] (IC50) was put at 0.3 nM. Moreover, it took 19200 nM to reach half-maximal cytotoxicity in [2] (CC50). Besides, the selectivity ratio in [3] is greater than 60000.

As for `CC(c1cc2ccccc2s1)N(O)C(N)=O` (stereo unspecified) [ZILEUTON], in series [4], the Vmax (commonly the rate approached at saturating substrate) came out at 1.2 nmol/min/mg. In addition, the clearance (in general, the volume of plasma or blood freed of the substance per unit of time) in [5] is 14 mL/min/kg. The half-life (in general, the time needed for the level to fall by half in the phase considered) in series [6] is 0.4 h. Regarding `Cc1cn([C@H]2C=C[C@@](C#N)(CO)O2)c(=O)[nH]c1=O`, in series [7], the EC50 – broadly, the midpoint of the concentration-response curve – amounted to 7000 nM. In addition, the CC50 – broadly, the concentration that lowers cell viability or growth by half – in [8] is greater than 100000 nM.

`O=c1[nH]cc(Br)c(=O)[nH]1`: the Kinact in series [9] amounted to 0.42 min⁻¹. Turning to `CC(/C=C/c1cccc(Oc2ccc(F)cc2)c1)N(O)C(N)=O` (stereo unspecified), the Vmax in series [4] stood at 0.19 nmol/min/mg. Further, in [5], the clearance came to 2 mL/min/kg. Further, the half-life in series [6] was 4.7 h. Regarding `Cc1cn([C@H]2C=C[C@@H](CO)O2)c(=O)[nH]c1=O` [STAVUDINE], the EC50 in series [7] amounted to 1300 nM. The 50% cytotoxic concentration (CC50) in [8] came out at 98000 nM. For the same molecule, the Km (commonly the concentration of substrate that gives half-maximal velocity) in [10] is 133 µM. As to `CC(C#Cc1cccc(Oc2ccc(F)cc2)c1)N(O)C(N)=O` (stereo unspecified) [FENLEUTON], the Vmax in [4] was determined as 0.05 nmol/min/mg. The clearance in series [5] amounted to 1.3 mL/min/kg. The half-life in [6] was 5.5 h. Take `CC#Cn1ccc(=O)[nH]c1=O`: in series [9], the Kinact amounted to 0.46 min⁻¹. On to `C#CC[C@@H](C(=O)N[C@H](/C=C/C(=O)OCC)CC1CCNC1=O)n1cccc(NC(=O)c2cc(C)on2)c1=O` (stereo partly specified), for which the EC50 with Human rhinovirus sp. was 58 nM. Besides, in series [11], the half-life at 25 µM is 6.6 h. In addition, the solubility thermodynamic at 4 h in series [12] came out at 377 µg/mL (≈ 720 µM). For the same molecule, the metabolised at 0.5 h, 25 µM in series [13] stood at 40%. Take `C#CCN[C@@H]1CCc2ccc(OC(=O)N(C)CC)cc21` [LADOSTIGIL]: in [14], the IC50 (in general, the concentration at which inhibition is half-maximal) is greater than 100000 nM. Turning to `C#C/C=C(\c1ccccc1)c1ccc2nc(N)n(S(=O)(=O)C(C)C)c2c1`, in the series with Poliovirus 1, half-maximal inhibition (IC50) required 0.02 µg/mL (≈ 0.0547 µM). The Cmax – broadly, the highest concentration seen after dosing – in [15] lay within 70 to 300 ng/mL. As for `CCOC(=O)/C=C/[C@H](CC1CCNC1=O)NC(=O)[C@H](Cc1ccc(F)c(F)c1)n1cccc(NC(=O)c2cc(C)on2)c1=O` (stereo partly specified), in the series on rhinovirus B14, the EC50 stood at 11 nM. Further, the half-life at 25 µM in series [11] is 1.4 h. In [12], the solubility thermodynamic at 4 h turned out to be 25 µg/mL (≈ 40.9 µM). The metabolised at 0.5 h, 25 µM in series [13] is 81%. `C#CCN(C)c1nc(NCCCCC2CCN(Cc3ccccc3)CC2)c(C#N)cc1C#N`: in series [16], the IC50 was greater than 100 nM. For the molecule `[N-]=[N+]=C1C=NC(=O)NC1=O`, the Kinact in series [9] was 1.68 min⁻¹. `C#C[C@@]1(CO)C=C[C@H](n2cc(C)c(=O)[nH]c2=O)O1` [CENSAVUDINE] had an EC50 in series [7] of 250 nM. This molecule also registered a CC50 in [8] greater than 256000 nM. In the series on Poliovirus 1, `C/C=C(\c1ccccc1)c1ccc2nc(N)n(S(=O)(=O)C(C)C)c2c1` came in with an IC50 of 0.06 µg/mL (≈ 0.169 µM). The Cmax in series [15] fell in the range of 14 to 140 ng/mL.

Take `O=c1[nH]cc(C(F)(F)F)c(=O)[nH]1`: in series [9], the Kinact worked out at 0.23 min⁻¹.

Take `Oc1ncc(/C=C/Br)c(O)n1`: in series [9], the Kinact is 0.6 min⁻¹. In series [17], `C#CCN(C)[C@H](C)Cc1ccccc1` [SELEGILINE] returned a Ki of 1000 nM. Moreover, the Kinact in the series filed under Homo sapiens is 0.23 min⁻¹. For `N#Cc1cnc(O)nc1O`, in series [9], the Kinact came to 0.78 min⁻¹. The same measure, in the same setting: next, `C#Cc1c[nH]c(=O)[nH]c1=O`: 5.64 min⁻¹. In series [6], `CC(C#Cc1ccc(Cc2ccc(F)cc2)s1)N(O)C(N)=O` (stereo unspecified) showed a half-life of 14.5 h.

For the molecule `C#CCNCc1cc2cc(OCc3ccccc3)ccc2[nH]1`, the IC50 against Acetylcholinesterase and on Cholinesterase was greater than 100000 nM each time.

B1: Thymidine kinase, cytosolic (Homo sapiens) (protein)
chain: T2 sequence (P04183 whole entry)
For B1, in series [18], the Km came to 53 µM.
